Measurements published in paper PMC5150661 (Journal of Medicinal Chemistry, 2016).
Marks after values point to notes of the source that are not given here.

Key:
in vitro [1] = details: human, microsomes
in vitro [2] = details: mouse, microsomes
[3] = 1% DMSO, nephelometry; for Sol2.0: 0.01 M HCl (approximately pH 2.0); for Sol6.5: pH 6.5 phosphate buffer
S. mansoni [4] = assay: S. mansoni in vivo study, worm burden reduction in infected NMRI mice; design: species or system Schistosoma mansoni in NMRI mice; details: Schistosoma mansoni, in Mus musculus, po, 504 h, read-out: S. mansoni WBR
physchem = format: physicochemical; details: pH 7.4
human albumin = human albumin (Homo sapiens, UniProt P02768); assay: in vitro; format: in vitro ADME; details: plasma, cPPB, estimated from retention on human albumin column
[5] = format: in vitro ADME; details: liver microsomes
[6] = Mouse exposure study after oral administration; format: in vivo, male Swiss outbred mice; details: male, Swiss outbred, mouse, plasma, po, 100 mg/kg
[7] = single 1250 mg/kg dose, mice; cited from earlier work
AR = details: cited from earlier work
[8] = test system: androgen-dependent cell line; details: cited from earlier work
S. mansoni [9] = details: 1 × 100 mg/kg po; ref Keiser et al. 19; 100 mg/kg; cited from earlier work
[10] = cited from earlier work
[11] = test system: schistosomula or adult S. mansoni; details: concentrations up to 170 μM; cited from earlier work

Chain of human albumin (P02768 25-609): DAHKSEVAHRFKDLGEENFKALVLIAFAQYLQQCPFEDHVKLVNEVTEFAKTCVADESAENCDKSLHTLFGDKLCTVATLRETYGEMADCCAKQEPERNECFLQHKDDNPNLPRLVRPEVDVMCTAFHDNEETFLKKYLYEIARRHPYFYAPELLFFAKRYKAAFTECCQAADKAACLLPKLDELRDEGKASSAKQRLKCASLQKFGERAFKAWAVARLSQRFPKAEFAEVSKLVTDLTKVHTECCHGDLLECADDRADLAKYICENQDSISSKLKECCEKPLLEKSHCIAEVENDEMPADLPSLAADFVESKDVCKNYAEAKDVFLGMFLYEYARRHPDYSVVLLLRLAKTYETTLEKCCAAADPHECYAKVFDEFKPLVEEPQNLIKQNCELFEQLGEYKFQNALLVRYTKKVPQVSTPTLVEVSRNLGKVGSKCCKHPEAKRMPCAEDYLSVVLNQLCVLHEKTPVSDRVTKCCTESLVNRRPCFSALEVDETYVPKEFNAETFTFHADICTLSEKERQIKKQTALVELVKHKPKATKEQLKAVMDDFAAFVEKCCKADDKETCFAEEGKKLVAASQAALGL

Compound: CC1NC(=O)N(c2ccc(F)c(C(F)(F)F)c2)C1=O (centres unmarked) [Compd 23, 3-[4-Fluoro-3-(trifluoromethyl)phenyl]-5-methylimidazolidine-2,4-dione]
- microsomal CLint (in vitro [1]): 17 µL/min/mg
- microsomal CLint (in vitro [2]): 34 µL/min/mg
- Sol2.0 [3]: >100/>100 μg/mL
- Sol6.5 [3]: >100/>100 μg/mL
- inhibition in vivo at 100 mg/kg (S. mansoni [4]): 66%
- chromatographic logD (physchem): 2.4
- fraction unbound (human albumin): 0.614
- metabolic stability (in words) [5]: high metabolic stabilities
- AUC(0-t) [6]: 163 µM·h
- Cmax [6]: 26.6 µM
- Tmax [6]: 1 h

Compound: CC1(C)NC(=O)N(c2ccc(F)c(C(F)(F)F)c2)C1=O [Compd 1]
- Sol2.0 [3]: >100/>100 μg/mL
- Sol6.5 [3]: >100/>100 μg/mL
- toxicity after a single dose [7]: no apparent toxicity
- interaction with the AR in a ligand competition assay (AR): no measurable interaction
- DHT-induced cell proliferation [8]: did block
- S. mansoni WBR (S. mansoni [9]): 95 ^h %
- metabolic stability (in words) [5]: high metabolic stabilities
- pKa [10]: 12.1
- effect on adult S. mansoni in vitro [11]: almost no effect
